From US20090012087A1, “New Aza-Bicyclohexane Compounds Useful As Inhibitors Of Thrombin” (ASTRAZENECA AB, priority 2007, published 2009)
Where a name gives a salt, the structure may show the parent alone.

Target: T1, Human α-thrombin (Homo sapiens, UniProt P00734)
T1 construct: Human α-thrombin; purchased Sigma Chemical Co. or Hematologic Technologies
Assay: Test A: Determination of Thrombin Inhibition with a Chromogenic, Robotic Assay
Type: biochemical
Details: chromogenic substrate S-2366 0.30 mmol/L, α-thrombin 0.020 NIHU/mL, 40 minutes incubation at 37° C.
Protocol: Determination of Thrombin Inhibition with a Chromogenic, Robotic Assay
The thrombin inhibitor potency is measured with a chromogenic substrate method, in a Plato 3300 robotic microplate processor (Rosys AG, CH-8634 Hombrechtikon, Switzerland), using 96-well, half volume microtitre plates (Costar, Cambridge, Mass., USA; Cat No 3690). Stock solutions of test substance in DMSO (72 μL), 0.1-1 mmol/L, are diluted serially 1:3 (24+48 μL) with DMSO to obtain ten different concentrations, which are analysed as samples in the assay. 2 μL of test sample is diluted with 124 μL assay buffer, 12 μL of chromogenic substrate solution (S-2366, Chromogenix, Mölndal, Sweden) in assay buffer and finally 12 μL of α-thrombin solution (Human α-thrombin, Sigma Chemical Co. or Hematologic Technologies) in assay buffer, are added, and the samples mixed. The final assay concentrations are: test substance 0.00068-133 μmol/L, S-2366 0.30 mmol/L, α-thrombin 0.020 NIHU/mL. The linear absorbance increment during 40 minutes incubation at 37° C. is used for calculation of percentage inhibition for the test samples, as compared to blanks without inhibitor.

Row | IC50 | SMILES
1 | 8 nM | NC(C(=O)N1[C@H](C(=O)NCc2cc(Cl)ccc2-n2cnnn2)C[C@@H]2C[C@@H]21)c1ccccc1F (stereo partly drawn) [Example 73, (1S,3S,5S)-2-[2-Amino-2-(2-fluoro-phenyl)-acetyl]-2-aza-bicyclo[3.1.0]hexane-3-carboxylic acid 5-chloro-2-tetrazol-1-yl-benzylamide]
2 | 5 nM | N[C@@H](C(=O)N1[C@H](C(=O)NCc2cc(Cl)ccc2-n2cnnn2)C[C@@H]2C[C@@H]21)c1cccc(Cl)c1 [Example 71, (1S,3S,5S)-2-[(R)-2-Amino-2-(3-chloro-phenyl)-acetyl]-2-aza-bicyclo[3.1.0]hexane-3-carboxylic acid 5-chloro-2-tetrazol-1-yl-benzylamide]
3 | 6 nM | CC(C)(C)C[C@@H](O)C(=O)N1CC2CC1(C(=O)NCc1cc(Cl)ccc1-n1cnnn1)C2 [Example 28, 2-((R)-2-Hydroxy-4,4-dimethyl-pentanoyl)-2-aza-bicyclo[2.1.1]hexane-1-carboxylic acid 5-chloro-2-tetrazol-1-yl-benzylamide]
4 | 170 nM | O=C([C@H](O)CCc1ccccc1)N1CC2CC1(C(=O)NCc1cc(Cl)ccc1-n1cnnn1)C2 [Example 65, 2-((R)-2-Hydroxy-4-phenyl-butyryl)-2-aza-bicyclo[2.1.1]hexane-1-carboxylic acid 5-chloro-2-tetrazol-1-yl-benzylamide]
5 | 47 nM | O=C([C@H](O)c1ccccc1)N1CC2CC1(C(=O)NCc1cc(Cl)ccc1-n1cnnn1)C2 [Example 30, 2-((R)-2-Hydroxy-2-phenyl-acetyl)-2-aza-bicyclo[2.1.1]hexane-1-carboxylic acid 5-chloro-2-tetrazol-1-yl-benzylamide]
6 | 290 nM | O=C([C@H](O)Cc1ccccc1)N1CC2CC1(C(=O)NCc1cc(Cl)ccc1-n1cnnn1)C2 [Example 29, 2-((R)-2-Hydroxy-3-phenyl-propionyl)-2-aza-bicyclo[2.1.1]hexane-1-carboxylic acid 5-chloro-2-tetrazol-1-yl-benzylamide]
7 | 3 nM | O=C(NCc1cc(Cl)ccc1-n1cnnn1)[C@@H]1[C@H]2C[C@H]2CN1C(=O)[C@H](O)c1cccc(Cl)c1 [Example 57, (1S,2S,5R)-3-[(R)-2-(3-Chloro-phenyl)-2-hydroxy-acetyl]-3-aza-bicyclo[3.1.0]hexane-2-carboxylic acid 5-chloro-2-tetrazol-1-yl-benzylamide]

Further lines, the molecule ahead of its results:

Row | SMILES | IC50
8 | CC(C)(C)OC[C@@H](O)C(=O)N1CC2CC1(C(=O)NCc1cc(Cl)ccc1-n1cnnn1)C2 [Example 66, 2-((R)-3-tert-Butoxy-2-hydroxy-propionyl)-2-aza-bicyclo[2.1.1]hexane-1-carboxylic acid 5-chloro-2-tetrazol-1-yl-benzylamide] | 67 nM
9 | NC(C(=O)N1[C@H](C(=O)NCc2cc(Cl)ccc2-n2cnnn2)C[C@@H]2C[C@@H]21)C1CCS(=O)(=O)CC1 (stereo partly drawn) [Example 72, (1S,3S,5S)-2-[2-Amino-2-(1,1-dioxo-hexahydro-1λ^6-thiopyran-4-yl)-acetyl]-2-aza-bicyclo[3.1.0]hexane-3-carboxylic acid 5-chloro-2-tetrazol-1-yl-benzylamide] | 240 nM
10 | O=C(NCc1cc(Cl)ccc1-n1cnnn1)[C@@H]1[C@H]2C[C@H]2CN1C(=O)[C@H]1COCCN1 [Example 75, (1S,2S,5R)-3-((R)-Morpholine-3-carbonyl)-3-aza-bicyclo[3.1.0]hexane-2-carboxylic acid 5-chloro-2-tetrazol-1-yl-benzylamide acetate] | 650 nM
11 | CC(C)(C)C[C@@H](N)C(=O)N1[C@H](C(=O)NCc2cc(Cl)ccc2-n2cnnn2)C[C@@H]2C[C@@H]21 [Example 20, (1S,3S,5S)-2-((R)-2-Amino-4,4-dimethyl-pentanoyl)-2-aza-bicyclo[3.1.0]hexane-3-carboxylic acid 5-chloro-2-tetrazol-1-yl-benzylamide hydrochloride] | 2 nM
12 | N[C@H](CO)C(=O)N1[C@@H]2C[C@@H]2C[C@H]1C(=O)NCc1cc(Cl)ccc1-n1cnnn1 [Example 50, (1R,3S,5R)-2-((R)-2-Amino-3-hydroxy-propionyl)-2-aza-bicyclo[3.1.0]hexane-3-carboxylic acid 5-chloro-2-tetrazol-1-yl-benzylamide hydrochloride] | 2500 nM
13 | CC(C)(C1CC1)C(O)C(=O)N1C[C@H]2C[C@H]2[C@H]1C(=O)NCc1cc(Cl)ccc1-n1cnnn1 (stereo partly drawn) [Example 61, (1R,2S,5S)-3-(3-Cyclopropyl-2-hydroxy-3-methyl-butyryl)-3-aza-bicyclo[3.1.0]hexane-2-carboxylic acid 5-chloro-2-tetrazol-1-yl-benzylamide] | 15 nM
14 | O=C(NCc1cc(Cl)ccc1-n1cnnn1)[C@@H]1C[C@@H]2C[C@@H]2N1C(=O)C1(O)CCCc2ncccc21 (stereo partly drawn) [Example 77, (1S,3S,5S)-2-(5-Hydroxy-5,6,7,8-tetrahydro-quinoline-5-carbonyl)-2-aza-bicyclo[3.1.0]hexane-3-carboxylic acid 5-chloro-2-tetrazol-1-yl-benzylamide] | 9 nM
15 | CC(C)(C)OC[C@@H](N)C(=O)N1[C@H](C(=O)NCc2cc(Cl)ccc2-n2cnnn2)C[C@@H]2C[C@@H]21 [Example 53, (1S,3S,5S)-2-((R)-2-Amino-3-tert-butoxy-propionyl)-2-aza-bicyclo[3.1.0]hexane-3-carboxylic acid 5-chloro-2-tetrazol-1-yl-benzylamide acetate] | 5 nM
16 | O=C(NCc1cc(Cl)ccc1-n1cnnn1)[C@@H]1C[C@@H]2C[C@@H]2N1C(=O)[C@H](O)c1cc(Cl)cc(OC(F)F)c1 [Example 37, (1S,3S,5S)-2-[(R)-2-(3-Chloro-5-difluoromethoxy-phenyl)-2-hydroxy-acetyl]-2-aza-bicyclo[3.1.0]hexane-3-carboxylic acid 5-chloro-2-tetrazol-1-yl-benzylamide] | 4 nM
17 | O=C(NCc1cc(Cl)ccc1-n1cnnn1)[C@@H]1C[C@@H]2C[C@@H]2N1C(=O)C1(O)CCCc2ncccc21 (stereo partly drawn) [Example 76, (1S,3S,5S)-2-(5-Hydroxy-5,6,7,8-tetrahydro-quinoline-5-carbonyl)-2-aza-bicyclo[3.1.0]hexane-3-carboxylic acid 5-chloro-2-tetrazol-1-yl-benzylamide] | 11 nM
18 | CC(C)(C)C[C@@H](N)C(=O)N1C[C@@H]2C[C@@H]2[C@H]1C(=O)NCc1cc(Cl)ccc1-n1cnnn1 [Example 18, (1S,2S,5R)-3-((R)-2-Amino-4,4-dimethyl-pentanoyl)-3-aza-bicyclo[3.1.0]hexane-2-carboxylic acid 5-chloro-2-tetrazol-1-yl-benzylamide hydrochloride] | 1 nM
19 | CC(C)(C1CC1)C(O)C(=O)N1[C@@H]2C[C@@H]2C[C@H]1C(=O)NCc1cc(Cl)ccc1-n1cnnn1 (stereo partly drawn) [Example 60, (1R,3S,5R)-2-(3-Cyclopropyl-2-hydroxy-3-methyl-butyryl)-2-aza-bicyclo[3.1.0]hexane-3-carboxylic acid 5-chloro-2-tetrazol-1-yl-benzylamide] | 14 nM
20 | CC(C)(C)OC[C@@H](N)C(=O)N1C[C@@H]2C[C@@H]2[C@H]1C(=O)NCc1cc(Cl)ccc1-n1cnnn1 [Example 54, (1S,2S,5R)-3-((R)-2-Amino-3-tert-butoxy-propionyl)-3-aza-bicyclo[3.1.0]hexane-2-carboxylic acid 5-chloro-2-tetrazol-1-yl-benzylamide acetate] | 6 nM
